Measured values published in PubChem BioAssay (NCI).
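Briefly, cells in 96-well plates were exposed to five compound concentrations for 48 h, and endpoints were estimated by linear interpolation. At the TGI there is no net growth.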

How the values were obtained:
Test in all cases: growth of human tumour cells (NCI), 48 h
[1] = system: OVCAR-3 ovarian
[2] = system: SK-OV-3 ovarian
[3] = system: CAKI-1 renal
[4] = system: HL-60(TB) leukemia
[5] = system: RXF 393 renal
[6] = system: SK-MEL-2 melanoma
[7] = system: BT-549 breast
[8] = system: UO-31 renal
[9] = system: SF-268 CNS
[10] = system: KM12 colon
[11] = system: HOP-62 NSCLC
[12] = system: M14 melanoma
[13] = system: HT29 colon
[14] = system: HCC-2998 colon
[15] = system: MALME-3M melanoma
[16] = system: CCRF-CEM leukemia
[17] = system: EKVX NSCLC
[18] = system: U251 CNS
[19] = system: MCF7 breast
[20] = system: NCI/ADR-RES ovarian
[21] = system: OVCAR-8 ovarian
[22] = system: SN12C renal
[23] = system: OVCAR-5 ovarian
[24] = system: IGROV1 ovarian
[25] = system: UACC-257 melanoma
[26] = system: ACHN renal
[27] = system: MDA-N
[28] = system: MDA-MB-231 breast
[29] = system: SF-539 CNS
[30] = system: NCI-H23 lung
[31] = system: SW-620 colon
[32] = system: SNB-19 CNS
[33] = system: MDA-MB-435
[34] = system: HCT-116 colon
[35] = system: UACC-62 melanoma
[36] = system: SK-MEL-5 melanoma
[37] = system: LOX IMVI melanoma
[38] = system: NCI-H226 lung
[39] = system: T-47D breast
[40] = system: K-562 leukemia
[41] = system: HS 578T breast
[42] = system: A549 NSCLC
[43] = system: COLO 205 colon
[44] = system: SF-295 CNS
[45] = system: SK-MEL-28 melanoma
[46] = system: 786-0 renal
[47] = system: DU-145 prostate
[48] = system: SNB-75 CNS
[49] = system: RPMI-8226 leukemia
[50] = system: HCT-15 colon
[51] = system: SR leukemia
[52] = system: NCI-H460 lung
[53] = system: MOLT-4 leukemia
[54] = system: OVCAR-4 ovarian
[55] = system: PC-3 prostate
[56] = system: TK-10 renal
[57] = system: NCI-H522 lung
[58] = system: HOP-92 NSCLC
[59] = system: A498 renal

**Q.** What does the source list for `C[C@]12CCC(=O)C=C1CC[C@@H]1[C@@H]2CC[C@]2(C)C(=O)/C(=C/c3ccncc3)C[C@@H]12`?
**A.** TGI [1]: 27.1 µM; TGI [2]: 56.7 µM; TGI [3]: 43.7 µM; TGI [4]: 31.8 µM; TGI [5]: 31.4 µM; TGI [6]: 28.9 µM; TGI [7]: 42.5 µM; TGI [8]: 26.6 µM; TGI [9]: 45 µM; TGI [10]: 38.3 µM; TGI [11]: 32.5 µM; TGI [12]: 29.4 µM; TGI [13]: 32.7 µM; TGI [14]: 30.9 µM; TGI [15]: 33.8 µM; TGI [16]: > 100 µM; TGI [17]: 35.6 µM; TGI [18]: 25.7 µM; TGI [19]: 24.1 µM; TGI [20]: > 100 µM; TGI [21]: 90.2 µM; TGI [22]: 39.4 µM; TGI [23]: 34.2 µM; TGI [24]: 61.9 µM; TGI [25]: 28.6 µM; TGI [26]: 30.5 µM; TGI [27]: 54.3 µM; TGI [28]: 31.1 µM; TGI [29]: 46.1 µM; TGI [30]: 56.2 µM; TGI [31]: > 100 µM; TGI [32]: 26.8 µM; TGI [33]: 44.9 µM; TGI [34]: 23 µM; TGI [35]: 25.6 µM; TGI [36]: 22.1 µM; TGI [37]: 30.8 µM; TGI [38]: 34.6 µM; TGI [39]: 66 µM; TGI [40]: > 100 µM; TGI [41]: > 100 µM; TGI [42]: 46.5 µM; TGI [43]: 27.4 µM; TGI [44]: 36.1 µM; TGI [45]: 45 µM; TGI [46]: 31.3 µM; TGI [47]: 29.2 µM; TGI [48]: 45.1 µM; TGI [49]: 35.2 µM; TGI [50]: 48.8 µM; TGI [51]: 27.1 µM; TGI [52]: 29.7 µM; TGI [53]: 64.9 µM; TGI [54]: 55.1 µM; TGI [55]: 25.6 µM; TGI [56]: 38.5 µM; TGI [57]: 33.8 µM; TGI [58]: 42.8 µM

**Q.** Which TGI [1] does the source give for `c1cc2c(cc1NC1=NCCO1)CCCC2` here?
**A.** 16.8 µM

**Q.** And the TGI [2]?
**A.** 27.1 µM

**Q.** And the TGI [3]?
**A.** > 88.1 µM

**Q.** And the TGI [4]?
**A.** 7.5 µM

**Q.** What about the TGI [5] of the same molecule?
**A.** 14.2 µM

**Q.** What about the TGI [6] of the same molecule?
**A.** 11.4 µM

**Q.** And the TGI [7]?
**A.** 75.7 µM

**Q.** And the TGI [8]?
**A.** 51.8 µM

**Q.** What about the TGI [9] of the same molecule?
**A.** 25 µM

**Q.** What about the TGI [10] of the same molecule?
**A.** 10.5 µM

**Q.** And the TGI [11]?
**A.** 10.9 µM

**Q.** What about the TGI [12] of the same molecule?
**A.** 12.2 µM

**Q.** What about the TGI [13] of the same molecule?
**A.** 7.28 µM

**Q.** And the TGI [14]?
**A.** 9.8 µM

**Q.** What about the TGI [15] of the same molecule?
**A.** 21.9 µM

**Q.** And the TGI [16]?
**A.** > 26.7 µM

**Q.** What about the TGI [17] of the same molecule?
**A.** 47 µM

**Q.** And the TGI [18]?
**A.** 24.8 µM

**Q.** And the TGI [19]?
**A.** 41.5 µM

**Q.** And the TGI [20]?
**A.** 8.84 µM

**Q.** What about the TGI [21] of the same molecule?
**A.** 12.5 µM

**Q.** What about the TGI [22] of the same molecule?
**A.** 36.6 µM

**Q.** And the TGI [23]?
**A.** 39.7 µM

**Q.** And the TGI [24]?
**A.** 23.5 µM

**Q.** And the TGI [25]?
**A.** > 28.1 µM

**Q.** And the TGI [26]?
**A.** 72.9 µM

**Q.** And the TGI [27]?
**A.** 3.18 µM

**Q.** And the TGI [28]?
**A.** 6.1 µM

**Q.** What about the TGI [29] of the same molecule?
**A.** 6.25 µM

**Q.** And the TGI [30]?
**A.** 16 µM

**Q.** And the TGI [31]?
**A.** 47.3 µM

**Q.** And the TGI [32]?
**A.** > 84.2 µM

**Q.** And the TGI [33]?
**A.** 4.1 µM

**Q.** And the TGI [34]?
**A.** 16 µM

**Q.** And the TGI [35]?
**A.** 16.5 µM

**Q.** What about the TGI [36] of the same molecule?
**A.** 9.17 µM

**Q.** What about the TGI [37] of the same molecule?
**A.** 11.1 µM

**Q.** And the TGI [38]?
**A.** 11.4 µM

**Q.** And the TGI [39]?
**A.** > 88.7 µM

**Q.** And the TGI [40]?
**A.** > 24.5 µM

**Q.** What about the TGI [41] of the same molecule?
**A.** 23 µM

**Q.** And the TGI [42]?
**A.** 39.9 µM

**Q.** And the TGI [43]?
**A.** 3.8 µM

**Q.** What about the TGI [59] of the same molecule?
**A.** 9.74 µM

**Q.** And the TGI [44]?
**A.** 25.6 µM

**Q.** What about the TGI [45] of the same molecule?
**A.** 27.2 µM

**Q.** And the TGI [46]?
**A.** 16.7 µM

**Q.** What about the TGI [47] of the same molecule?
**A.** 24.6 µM

**Q.** And the TGI [48]?
**A.** 35.3 µM

**Q.** And the TGI [49]?
**A.** 12 µM

**Q.** And the TGI [50]?
**A.** 22.4 µM

**Q.** And the TGI [52]?
**A.** 15.7 µM

**Q.** What about the TGI [53] of the same molecule?
**A.** 9.67 µM

**Q.** And the TGI [54]?
**A.** 71.2 µM

**Q.** And the TGI [55]?
**A.** 15.5 µM

**Q.** And the TGI [56]?
**A.** 52.5 µM

**Q.** What about the TGI [57] of the same molecule?
**A.** 18 µM

**Q.** What about the TGI [58] of the same molecule?
**A.** 19.3 µM
